Results reported in US10851096B2, “Aryl and heteroaryl amides for use as anti-proliferative, anti-thrombotic, and anti-viral agents” (Rutgers, The State University of New Jersey, priority 2016, dated 2020).

molecular target: T1, hAxl/IFN-γR1 (Homo sapiens, UniProt P30530); assay: hAxl/IFN-γR1 CHO reporter cell line assay, Gas6-induced activation (pSTAT1 immunoblot); type: cell-based; details: not given
T1 construct: containing human Axl extracellular domains and transmembrane and intracellular domains of human IFN-γR1; human IFN-γR1 transmembrane and intracellular domains (fusion partner); expressed in transfected cells
T1 sequence (P30530 26-451 limits assumed): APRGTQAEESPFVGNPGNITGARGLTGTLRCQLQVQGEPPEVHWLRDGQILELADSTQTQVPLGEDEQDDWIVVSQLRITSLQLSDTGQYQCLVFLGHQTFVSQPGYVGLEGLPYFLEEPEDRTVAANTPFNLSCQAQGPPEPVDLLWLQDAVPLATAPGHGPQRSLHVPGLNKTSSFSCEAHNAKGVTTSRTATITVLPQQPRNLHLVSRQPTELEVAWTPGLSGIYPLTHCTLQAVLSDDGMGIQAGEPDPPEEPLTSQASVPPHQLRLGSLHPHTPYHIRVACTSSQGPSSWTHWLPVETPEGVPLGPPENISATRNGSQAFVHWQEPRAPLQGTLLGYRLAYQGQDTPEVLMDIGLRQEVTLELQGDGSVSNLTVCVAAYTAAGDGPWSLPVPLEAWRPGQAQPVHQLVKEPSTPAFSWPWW
Experimental: Stable HEK 293 cells secreting human Gas6 (clone 7.4.1) were allowed to achieve 70% confluence in a 10-cm plate. The complete medium with 10% FBS was then changed into serum free media in the presence of 10 µg/mL vitamin K1 (Phytonadione injectable emulsion from Hospira). After 72 hours, the Gas6 conditioned medium was collected, and validated for the presence of Gas6 and γ-carboxylation (by immunoblot) and activity of Gas6 (via activation of pSTAT1 in hAxl/γR1 cells).
Stable hAxl/IFN-γR1 CHO reporter cell lines (containing human Axl extracellular domains and transmembrane and intracellular domains of human IFN-γR1) were serum starved for 5 hrs±small molecule inhibitors and then stimulated with human Gas6 conditioned media±small molecule inhibitors for 30 minutes. For H1299 human non-small cell lung carcinoma and MDA-MB-231 human breast adenocarcinoma cell lines, the cells were serum starved overnight±small molecule inhibitors and stimulated with human Gas6 conditioned media±small molecule inhibitors for 30 minutes. Whole cell lysates of hAxl/IFN-γR1, H1299 and MDA-MB-231 cells were prepared using HNTG buffer (20 mM HEPES, pH 7.5, 150 mM NaCl, 10% glycerol, 1% Triton X-100, 1 mM PMSF, 1 mM Na3VO4, 10 mM Na2MoO4, 1 mM EDTA, 10 mM NaF and 20 μg/mL aprotinin). The resulting lysates were resolved on SDS-PAGE gel and immunoblotted with respective antibodies.
Immunoblot data were obtained within a linear range of exposure, and intensities were quantified by ImageJ. The levels of hAxl/IFN-γR1 cells lines activation were measured by pSTAT1 whereas the levels of H1299 and MDA-MB-231 cell lines activation were measured by pAxl signal intensities. Blots were normalized to intensities of respective β-actin or GAPDH protein loading controls. The levels of pSTAT1 or pAxl activation induced by Gas6±small molecule inhibitors were plotted as a fold of enhancement or reduction over intensities induced by Gas6 alone.

| SMILES | remaining activity at 10 µM |
| --- | --- |
| Cc1cc(CSc2ncccc2C(=O)NCCNc2ccc(C(F)(F)F)cc2[N+](=O)[O-])on1 [Compound 2] | 57% |
| Cc1cc(CSc2ncncc2C(=O)NCCNc2ccc(C(F)(F)F)cc2[N+](=O)[O-])on1 [Compound 3] | 26% |
| Cc1cc(CSc2nc(C)cc(C)c2C(=O)NCCNc2ccc(C(F)(F)F)cc2[N+](=O)[O-])on1 [Compound 4] | 83% |
| Cc1cc(CSc2ccccc2C(=O)NCCNc2nc3ccccc3s2)on1 [Compound 5] | 13% |
| Cc1cc(CSc2ccccc2C(=O)NCCNc2ccc(C(F)(F)F)cn2)on1 [Compound 6] | 6% |
| Cc1cc(CSc2ccccc2C(=O)NCCNc2nc3cc(C(F)(F)F)ccc3s2)on1 [Compound 7] | 33% |
| Cc1cc(CSc2ccccc2C(=O)NCCNc2ccc(C(F)(F)F)cc2C#N)on1 [Compound 8] | 9% |
| Cc1cc(CSc2ccccc2C(=O)NCCNc2nc3ccccc3o2)on1 [Compound 9] | 20% |
| Cc1cc(CSc2ccccc2C(=O)NCCNc2ccc(F)cc2C#N)on1 [Compound 10] | 14% |
| Cc1cc(CSc2ccccc2C(=O)NCCNc2ccc(C(F)(F)F)c(C#N)c2)on1 [Compound 11] | 29% |
| Cc1cc(CSc2ccccc2C(=O)NCCNc2ccc(C#N)cc2)on1 [Compound 12] | 16% |
| Cc1cc(CSc2ccccc2C(=O)NCCNc2nc(C(F)(F)F)cs2)on1 [Compound 13] | 6% |
| Cc1cc(CSc2ccccc2C(=O)N2CCN(CC(=O)Nc3ccc(F)cc3)CC2)no1 [Compound 14] | 110% |
| Cc1cc(CSc2ccccc2C(=O)N2CCN(Cc3nc4ccccc4[nH]3)CC2)no1 [Compound 15] | 141% |
| Cc1cc(CSc2ccccc2C(=O)N2CCN(CC(=O)Nc3ccccc3F)CC2)no1 [Compound 16] | 109% |
| Cc1cc(CSc2ccccc2C(=O)N2CCN(CC(=O)Nc3ccc(Cl)cc3)CC2)no1 [Compound 17] | 79% |
| Cc1cc(CSc2ccccc2C(=O)N2CCN(CC(=O)Nc3ccc(Cl)cn3)CC2)no1 [Compound 18] | 46% |
| Cc1cc(CSc2ccccc2C(=O)N2CCN(Cc3nc4ccccc4o3)CC2)no1 [Compound 19] | 41% |
| Cc1cc(CSc2ccccc2C(=O)N2CCN(Cc3nc4cccc(Cl)c4o3)CC2)no1 [Compound 20] | 55% |
| Cc1cc(CSc2ccccc2C(=O)N2CCN(Cc3nc4cc(Cl)ccc4s3)CC2)no1 [Compound 21] | 8% |
| CCN(C(=O)CN1CCN(C(=O)c2ccccc2SCc2cc(C)on2)CC1)c1ccc(F)cc1 [Compound 22] | 108% |
| Cc1cc(CSc2ccccc2C(=O)N2CCN(Cc3nc4cc(C(F)(F)F)ccc4s3)CC2)no1 [Compound 23] | 8% |
| COc1ccc2nc(CN3CCN(C(=O)c4ccccc4SCc4cc(C)on4)CC3)sc2c1 [Compound 24] | 90% |
| Cc1ccc(NC(=O)CN2CCN(C(=O)c3ccccc3SCc3cc(C)on3)CC2)c(Cl)c1 [Compound 25] | 27% |
| Cc1cc(CSc2ccccc2C(=O)N2CCN(CC(=O)NCc3ccc(Cl)cc3)CC2)no1 [Compound 26] | 54% |
| Cc1cc(CSc2ccccc2C(=O)NCCNc2ncccn2)on1 [Compound 27] | 16% |
| Cc1cc(CSc2ccccc2C(=O)NCCNc2ncc(C(F)(F)F)cc2Cl)on1 [Compound 28] | 6% |

More lines, now with the values ahead:

| remaining activity at 10 µM | SMILES |
| --- | --- |
| 60% | Cc1cc(CSc2ccccc2C(=O)N2CCN(Cc3ccc4c(c3)CCO4)CC2)no1 [1A] |
| 70% | Cc1cc(CSc2ccccc2C(=O)N2CCN(CC(=O)N3CCOCC3)CC2)no1 [1B] |
| 60% | Cc1cc(CSc2ccccc2C(=O)N2CCN(Cc3ccc(C#N)cc3)CC2)no1 [1C] |
| 50% | Cc1cc(CSc2ccccc2C(=O)N2CCN(Cc3ccncc3)CC2)no1 [1D] |
| 60% | Cc1nc(CSc2ccccc2C(=O)N2CCN(Cc3ccccc3)CC2)cs1 [1E] |
| 20% | Cc1cc(CSc2ccccc2C(=O)N2CCN(Cc3nc4ccccc4s3)CC2)no1 [1F] |
| 20% | O=C(c1ccccc1SCc1ccsc1)N1CCN(Cc2ccncc2)CC1 [1H] |
| 80% | Cc1cc(CSc2ncccc2C(=O)N2CCN(CC(=O)Nc3cccc(C)c3C)CC2)no1 [1K] |
| 20% | Cc1cc(CSc2ncccc2C(=O)N2CCN(CC(=O)Nc3ccccc3Cl)CC2)no1 [1L] |
| 20% | Cc1noc(C)c1CSc1ccccc1C(=O)N1CCN(Cc2cccs2)CC1 [1M] |
| 30% | Cc1cc(CSc2ccccc2C(=O)N2CCN(CC(=O)Nc3ccccc3Cl)CC2)no1 [1N] |
| 40% | O=C(c1ccccc1SCc1cccs1)N1CCN(Cc2ccncc2)CC1 [1O] |
| 100% | Cc1nc(COc2ccccc2C(=O)N2CCN(Cc3ccncc3)CC2)cs1 [1P] |
| 40% | Cc1cc(CSc2ccccc2C(=O)NCCNc2ccccc2[N+](=O)[O-])on1 [1R] |

molecular target: T2, Tyro3 (Homo sapiens, UniProt Q06418); assay: not given; details: cited from earlier work
T2 sequence (Q06418 41-890): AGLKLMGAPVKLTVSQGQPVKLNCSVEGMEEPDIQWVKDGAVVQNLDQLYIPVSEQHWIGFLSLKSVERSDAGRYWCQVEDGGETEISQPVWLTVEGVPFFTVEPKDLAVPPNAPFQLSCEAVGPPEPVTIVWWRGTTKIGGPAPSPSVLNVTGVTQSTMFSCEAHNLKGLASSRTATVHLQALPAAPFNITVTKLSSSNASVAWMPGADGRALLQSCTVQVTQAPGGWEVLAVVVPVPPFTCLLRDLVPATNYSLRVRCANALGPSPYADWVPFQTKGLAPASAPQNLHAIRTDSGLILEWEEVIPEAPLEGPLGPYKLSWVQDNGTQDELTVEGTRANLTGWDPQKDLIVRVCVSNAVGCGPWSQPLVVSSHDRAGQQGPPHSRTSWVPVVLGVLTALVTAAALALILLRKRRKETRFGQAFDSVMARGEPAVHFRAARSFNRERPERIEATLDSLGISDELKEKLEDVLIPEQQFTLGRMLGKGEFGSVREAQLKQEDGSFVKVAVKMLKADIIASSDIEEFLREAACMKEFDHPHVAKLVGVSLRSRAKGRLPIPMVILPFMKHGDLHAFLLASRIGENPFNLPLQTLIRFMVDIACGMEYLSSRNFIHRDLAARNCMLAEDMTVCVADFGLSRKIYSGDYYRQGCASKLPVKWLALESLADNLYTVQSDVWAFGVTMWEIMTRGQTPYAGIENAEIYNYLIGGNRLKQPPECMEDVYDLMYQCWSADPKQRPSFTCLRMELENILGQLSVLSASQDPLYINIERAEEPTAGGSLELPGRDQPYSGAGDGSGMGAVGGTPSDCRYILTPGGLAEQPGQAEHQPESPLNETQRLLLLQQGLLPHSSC

| SMILES | IC50 |
| --- | --- |
| Nc1nc(Nc2ccc3c(c2)CC[C@@H](N2CCCC2)CC3)nn1-c1cc2c(nn1)-c1ccccc1CCC2 [BGB324] | 1400 nM |
